Tests used:
[1] = tested on: channel-transfected 661W cells; assay: LDH-release cytotoxicity assay, channel-transfected cells; assay type: cell-based, mouse; conditions: CPT-cAMP alone, 0.1 to 10 µM; data not shown
Protocol: The mouse photoreceptor 661W cell line used in this study was generously provided by Dr. Al-Ubaidi (University of Oklahoma Health Sciences Center, Oklahoma City, OK). The 661W cells were routinely maintained in Dulbecco’s modified Eagle’s medium (Gibco, Carlsbad, CA), supplemented with 10% fetal bovine serum (Gemini Bioproducts, Sacramento, CA) and 1% penicillin/streptomycin (Gibco), at 37 °C in a humidified incubator with 5% CO2; cells were subcultured every 3–5 days. The 661W cells were transfected with pOPRSVI plasmids encoding human cone CNG channel subunits using Lipofectamine™ 2000 and OptiMEM (Life Technologies, Carlsbad, CA) according to the manufacturer’s protocol for cells in suspension. […]
For most experiments, the LDH Cytotoxicity Detection Kit (Roche Applied Science) was used according to the manufacturer’s protocol (see also [37]). […] Following treatment, half of the culture medium was transferred to another 96-well plate and the LDH released into the culture medium was measured to assess the number of damaged/dead cells. Cells in the original plate were then lysed and the total amount of cellular LDH was assessed. The percentage cytotoxicity was then calculated from the ratio of LDH concentration in the medium/cells, and was normalized to the percentage cytotoxicity in untreated cells transfected with control pOPRSVI plasmid only.

[2] = tested on: 661W cells expressing CNG channels with the F525N mutation; assay: LIVE/DEAD Viability/Cytotoxicity Kit staining, cells expressing F525N; assay type: cell-based, mouse; conditions: 0.1 µM CPT-cGMP, 24 h; compared to WT-expressing or untreated F525N-expressing cells
Protocol: The viability of 661W cells transfected with WT or mutant CNG channels was also assessed using the LIVE⁄DEAD® Viability⁄Cytotoxicity Kit (Life Technologies) according to the manufacturer’s protocol. Briefly, cells were transfected under the conditions described above and plated into 4-well multi-chamber Lab-Tek glass slides (Nalge Nunc International, Rochester, NY). At the end of cyclic nucleotide treatment, cells were washed with PBS three times and stained with 2 μM calcein AM and 4 μM ethidium homodimer-1 solution at room temperature for 30 min. Fluorescence microscopy was then performed to visualize the live and dead cells. Imaging of cells was performed at the Washington State University Franceschi Microscopy and Imaging Center. Images were obtained using a 10× objective on an Axiovert 200M inverted microscope equipped with a Zeiss LSM 510 confocal laser-scanning system and a krypton-argon laser. Fluorescence was measured using an excitation wavelength of 488 nm, and a 522 DF 32 emission filter for green fluorescence and 635 DF 32 emission filter for red fluorescence.

SMILES | effect on relative cytotoxicity [1] | damaged/dead and intact/viable cells (calcein AM / ethidium homodimer-1 fluorescence) [2]
Nc1ncnc2c1nc(Sc1ccc(Cl)cc1)n2[C@@H]1O[C@@H]2COP(=O)(O)O[C@H]2[C@H]1O [CPT-cAMP, CPT-adenosine 3′,5′-cyclic monophosphate] | no significant increase in relative cytotoxicity | –
Nc1nc2c(nc(Sc3ccc(Cl)cc3)n2[C@@H]2O[C@@H]3COP(=O)(O)O[C@H]3[C@H]2O)c(=O)[nH]1 [CPT-cGMP, 8-(4-chlorophenylthio) guanosine 3′,5′-cyclic monophosphate] | – | more damaged/dead cells (red fluorescence) and less intact/viable cells

Reference: paper PMC3692405, “Disease-associated mutations in CNGB3 promote cytotoxicity in photoreceptor-derived cells” (Molecular Vision, 2013)
